Measurements from PubChem BioAssay AID248 (DTP/NCI, 2004).
“And” between values parts separate entries of the source, which are not always exact repeats. Equal values may be shown once. Inconclusive results and toxic doses are left out. Cut-off read from the data, not from the text of the source: active = T/C of 150% or more; inactive = T/C below 125%.

System: L1210 leukemia ip in BDF1 mice, survival T/C
Assay: NCI In Vivo Anticancer Drug Screen. Data for tumor model L1210 Leukemia (intraperitoneal) in B6D2F1 (BDF1) mice
Conditions: endpoint: mean survival time, higher = longer survival
In short: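 Tumor cells were implanted, animals were treated, and survival was followed. The result divides the treated measurement by the vehicle-control measurement.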

[1] = dose: 50.0 mg/kg/injection, schedule: Q01DX009 (ip), vehicle: saline with Tween-80
[2] = dose: 100.0 mg/kg/injection, schedule: Q01DX009 (ip), vehicle: saline with Tween-80
[3] = dose: 200.0 mg/kg/injection, schedule: Q01DX009 (ip), vehicle: saline with Tween-80
[4] = dose: 100.0 mg/kg/injection, schedule: Q01DX009 (ip), vehicle: Klucel (hydroxypropylcellulose) (HPC)
[5] = dose: 200.0 mg/kg/injection, schedule: Q01DX009 (ip), vehicle: Klucel (hydroxypropylcellulose) (HPC)
[6] = dose: 400.0 mg/kg/injection, schedule: Q01DX009 (ip), vehicle: Klucel (hydroxypropylcellulose) (HPC)
[7] = dose: 100.0 mg/kg/injection, schedule: Q04DX002 (ip), vehicle: Klucel (hydroxypropylcellulose) (HPC)
[8] = dose: 200.0 mg/kg/injection, schedule: Q04DX002 (ip), vehicle: Klucel (hydroxypropylcellulose) (HPC)
[9] = dose: 400.0 mg/kg/injection, schedule: Q04DX002 (ip), vehicle: Klucel (hydroxypropylcellulose) (HPC)
[10] = dose: 12.5 mg/kg/injection, schedule: Q01DX009 (ip), vehicle: saline with Tween-80
[11] = dose: 25.0 mg/kg/injection, schedule: Q01DX009 (ip), vehicle: saline with Tween-80
[12] = dose: 100.0 mg/kg/injection, schedule: Q01DX001 (ip), vehicle: saline
[13] = dose: 200.0 mg/kg/injection, schedule: Q01DX001 (ip), vehicle: saline
[14] = dose: 400.0 mg/kg/injection, schedule: Q01DX001 (ip), vehicle: saline
[15] = dose: 200.0 mg/kg/injection, schedule: Q01DX001 (ip), vehicle: carboxymethylcellulose (CMC)
[16] = dose: 100.0 mg/kg/injection, schedule: Q04DX002 (ip), vehicle: saline with Tween-80
[17] = dose: 200.0 mg/kg/injection, schedule: Q04DX002 (ip), vehicle: saline with Tween-80
[18] = dose: 400.0 mg/kg/injection, schedule: Q04DX002 (ip), vehicle: saline with Tween-80
[19] = dose: 400.0 mg/kg/injection, schedule: Q01DX009 (ip), vehicle: saline with Tween-80

Measured: T/C

COc1ccc(/C=N/NC(=O)c2ccc(Cl)cc2)cc1
inactive: [1] 88 % of control | [2] 105 % of control | [3] 91 % of control

O=c1[nH]c2ccncc2c(=O)n1O
inactive: [4] 94 % of control | [5] 104 % of control | [6] 94 % of control

CCCCOc1ccc(CCOC(C)=O)cc1
inactive: [7] 112 % of control | [8] 108 % of control | [9] 104 % of control

NS(=O)(=O)O
inactive: [10] 103 % of control | [11] 95 % of control | [1] 89 % of control

Cc1ccc(NCCO)c2c(=O)c3ccccc3sc12
inactive: [12] 101 % of control | [13] 101 % of control | [14] 89 % of control

C=C(C)[P+](C)(c1ccccc1)c1ccccc1
inactive: dose: 2.5 mg/kg/injection, schedule: Q01DX001 (ip), vehicle: saline 102 % of control | dose: 5.0 mg/kg/injection, schedule: Q01DX001 (ip), vehicle: saline 105 % of control

CC(C)(CNCc1ccccc1)COS(=O)(=O)O
inactive: dose: 100.0 mg/kg/injection, schedule: Q04DX003 (ip), vehicle: saline 102 % of control | dose: 200.0 mg/kg/injection, schedule: Q04DX003 (ip), vehicle: saline 102 % of control | dose: 400.0 mg/kg/injection, schedule: Q04DX003 (ip), vehicle: saline 100 % of control

CCN(CCCl)Cc1ccc(-c2c3ccccc3cc3c2ccc2ccccc23)cc1
inactive: dose: 78.0 mg/kg/injection, schedule: Q01DX001 (ip), vehicle: carboxymethylcellulose (CMC) 90 % of control | dose: 118.0 mg/kg/injection, schedule: Q01DX001 (ip), vehicle: carboxymethylcellulose (CMC) 92 % of control | dose: 177.0 mg/kg/injection, schedule: Q01DX001 (ip), vehicle: carboxymethylcellulose (CMC) 95 % of control

CCN(CC)CCOCCN(CC)CC
inactive: dose: 75.0 mg/kg/injection, schedule: Q01DX001 (ip), vehicle: saline 98 % of control | dose: 150.0 mg/kg/injection, schedule: Q01DX001 (ip), vehicle: saline 102 % of control

O=C(Nc1ccc2ccccc2c1)Nc1ccccc1F
inactive: [4] 93 % of control | [5] 104 % of control | [6] 93 % of control

O=C(O)C(O)C(O)C(O)C(O)CO.O=C(O)C(O)C(O)C(O)C(O)CO.O=C(O)C(O)C(O)C(O)C(O)CO.[Ga] (centres undefined)
inactive: dose: 50.0 mg/kg/injection, schedule: Q01DX001 (ip), vehicle: saline 101 % of control | [12] 103 % of control | [13] 112 % of control | [14] 100 % of control

C[Si](C)(C)Cc1ccccc1
inactive: dose: 50.0 mg/kg/injection, schedule: Q01DX001 (ip), vehicle: carboxymethylcellulose (CMC) 93 % of control | [15] 95 % of control

O=C1CCc2c1cccc2[N+](=O)[O-]
inactive: [16] 102 % of control | [17] 102 % of control | [18] 102 % of control

CCCCCOC(=O)Nc1cccc2ccccc12
inactive: [7] 94 % of control | [8] 94 % of control | [9] 98 % of control

O=C(O)C(Br)C(Br)C(=O)Nc1cccc(Cl)c1 (centres undefined)
inactive: [16] 91 % of control | [17] 95 % of control | [18] 88 % of control

CC(C)CCNCC(C)OC(=O)c1ccc([N+](=O)[O-])cc1 (centres undefined)
inactive: dose: 75.0 mg/kg/injection, schedule: Q01DX001 (ip), vehicle: other 98 % of control | dose: 150.0 mg/kg/injection, schedule: Q01DX001 (ip), vehicle: other 106 % of control | dose: 300.0 mg/kg/injection, schedule: Q01DX001 (ip), vehicle: other 95 % of control

CCSC(=O)n1nc(Cl)c2cc([N+](=O)[O-])ccc21
inactive: dose: 100.0 mg/kg/injection, schedule: Q01DX001 (ip), vehicle: carboxymethylcellulose (CMC) 93 % of control | [15] 102 % of control | dose: 400.0 mg/kg/injection, schedule: Q01DX001 (ip), vehicle: carboxymethylcellulose (CMC) 93 % of control

C=CCc1ccc(OC)c(OC)c1
inactive: dose: 100.0 mg/kg/injection, schedule: Q04DX002 (ip), vehicle: saline 97 % of control | dose: 200.0 mg/kg/injection, schedule: Q04DX002 (ip), vehicle: saline 95 % of control | dose: 400.0 mg/kg/injection, schedule: Q04DX002 (ip), vehicle: saline 104 % of control

CC(=O)OC(c1ccccc1)C(Cl)(Cl)Cl (centres undefined)
inactive: [2] 93 % of control | [3] 104 % of control | [19] 97 % of control

O=c1[nH][nH]c(=O)n1O
inactive: dose: 100.0 mg/kg/injection, schedule: Q01DX001 (ip), vehicle: saline with Tween-80 102 % of control | dose: 100.0 mg/kg/injection, schedule: Q01DX009 (ip), vehicle: acetone 105 % of control | [2] 91 % of control | dose: 100.0 mg/kg/injection, schedule: Q01DX009 (ip), vehicle: saline 94 % of control and 92 % of control | dose: 100.0 mg/kg/injection, schedule: Q04DX003 (ip), vehicle: saline with Tween-80 101 % of control and 109 % of control | dose: 130.0 mg/kg/injection, schedule: Q01DX009 (ip), vehicle: saline 89 % of control | dose: 200.0 mg/kg/injection, schedule: Q01DX001 (ip), vehicle: saline with Tween-80 106 % of control | [3] 88 % of control | dose: 200.0 mg/kg/injection, schedule: Q04DX003 (ip), vehicle: saline with Tween-80 102 % of control and 105 % of control | dose: 300.0 mg/kg/injection, schedule: Q01DX009 (ip), vehicle: saline 98 % of control and 89 % of control | dose: 400.0 mg/kg/injection, schedule: Q01DX001 (ip), vehicle: saline with Tween-80 104 % of control | dose: 400.0 mg/kg/injection, schedule: Q01DX009 (ip), vehicle: acetone 88 % of control | dose: 400.0 mg/kg/injection, schedule: Q01DX009 (ip), vehicle: saline 88 % of control | dose: 400.0 mg/kg/injection, schedule: Q04DX003 (ip), vehicle: saline with Tween-80 98 % of control and 89 % of control

COc1ccc(OC)c(NC(=O)c2ccc(F)cc2)c1
inactive: [4] 98 % of control | [5] 107 % of control | [6] 96 % of control

Nc1ncnc2c1ncn2C1OC(C(=O)NCC(=O)O)C(O)C1O (centres undefined)
inactive: dose: 100.0 mg/kg/injection, schedule: Q01DX005 (ip), vehicle: saline 113 % of control | dose: 200.0 mg/kg/injection, schedule: Q01DX005 (ip), vehicle: saline 100 % of control | dose: 400.0 mg/kg/injection, schedule: Q01DX005 (ip), vehicle: saline 101 % of control

O=C(O)c1ccsc1Cc1cccs1
inactive: dose: 100.0 mg/kg/injection, schedule: Q01DX001 (ip), vehicle: Klucel (hydroxypropylcellulose) (HPC) 101 % of control | [2] 97 % of control and 89 % of control | dose: 200.0 mg/kg/injection, schedule: Q01DX001 (ip), vehicle: Klucel (hydroxypropylcellulose) (HPC) 92 % of control | [3] 96 % of control and 100 % of control | dose: 400.0 mg/kg/injection, schedule: Q01DX001 (ip), vehicle: Klucel (hydroxypropylcellulose) (HPC) 106 % of control | [19] 93 % of control and 89 % of control

C[N+](C)(CC(=O)Nc1cccc(C(F)(F)F)c1)CC(=O)Nc1cccc(C(F)(F)F)c1
inactive: [10] 88 % of control | [11] 94 % of control | [1] 113 % of control
